Assay results: patent US20260355151A1, “SPIROCYCLIC DERIVATIVE-CONTAINING SALT OR CRYSTAL FORM, AND PREPARATION METHOD THEREFOR AND USE THEREOF” (SHUJING BIOPHARMA CO., LTD, priority 2022, published 2026)
Structures can show the parent of a compound that is named as a salt. Where two headings read alike, the source gives them in different places.

Legend:
[1] = tested on: high spontaneous activity induced by MK-801 in mice; test: Inhibition of high spontaneous activity induced by MK-801 in mice; assay type: in vivo, male C57Bl/6J mice
Experimental: Compounds to be tested: compounds in the examples of the present application, self-made.
(§1) Experimental animals: 18-22 g male C57Bl/6J mice, purchased from Shanghai Slack Experimental Animal Co., Ltd.
(§2) before the start of the experiment, animals were randomly grouped according to body weight.
before the experiment, the mice were first adapted to the experimental environment for at least 1 hour. That is, the animals were transferred from the breeding room to the laboratory and moved freely in the cage.
(§3) Drug preparation: taking the compound to be tested, adding pure water and performing ultrasonication.
(§4) The animals were randomly divided into blank group, model group, and administration group according to body weight, 9 mice/group, and the detailed administration information is shown in the following table:
(§5) T-30 min oral administration of compound: compound to be tested or solvent (pure water) was administered orally by gavage, and put into test box (test box size length*width*height=27*27*40 cm) immediately after administration, recording the spontaneous activity of the mice within 30 minutes.
The blank control group was injected with normal saline.
(§6) The activities of these animals (movement distance in the test box) were automatically recorded by the camera, and analyzed with ANY MAZE software, and the ED50 values were calculated.

[2] = tested on: high spontaneous activity induced by PCP in mice; test: Inhibition of high spontaneous activity induced by PCP in mice; assay type: in vivo, male C57Bl/6J mice
From the text: Compounds to be tested: compounds of the examples of the present application, self-made.
Phencyclidine hydrochloride (PCP): purchased from Shanghai Yuansi Standard Science Technology Co., Ltd., specification: 5 g.
as §1, §2
before the experiment, the mice were first adapted to the experimental environment for at least 1 hour. That is, animals were transferred from the feeding room to the laboratory, and moved freely in the cage.
as §3, §4, §5
T0 min intraperitoneal injection of modeling drug: 30 minutes after compound administration, the mice were taken out, and administered with PCP (5 mg/kg) by intraperitoneal injection. The blank control group was injected with pure water. After the administration of PCP, the animals were immediately put back into the test box, and the test was continued for 60 minutes.
as §6

5-HT1A receptor = biological target: T1, 5-HT1A receptor (Homo sapiens, UniProt P08908); test: 5-HT1A receptor cAMP agonist test; assay type: cell-based
T1 sequence (P08908 1-422): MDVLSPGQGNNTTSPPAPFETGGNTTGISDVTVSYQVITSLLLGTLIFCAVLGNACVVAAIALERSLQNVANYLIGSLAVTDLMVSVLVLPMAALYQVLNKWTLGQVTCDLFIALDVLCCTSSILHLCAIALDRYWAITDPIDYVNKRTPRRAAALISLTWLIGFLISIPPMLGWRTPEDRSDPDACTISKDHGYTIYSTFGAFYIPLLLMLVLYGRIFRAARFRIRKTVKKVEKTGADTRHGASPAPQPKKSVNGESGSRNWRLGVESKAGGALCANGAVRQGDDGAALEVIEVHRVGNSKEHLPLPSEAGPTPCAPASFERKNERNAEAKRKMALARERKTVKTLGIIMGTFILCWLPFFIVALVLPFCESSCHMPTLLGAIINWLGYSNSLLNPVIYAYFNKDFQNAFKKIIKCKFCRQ
From the text: The cAMP detection kit was purchased from Cisbio; the HEK293 cell line stably expressing 5-HT1A receptor was constructed by Shanghai Shujing Biotechnology Co., Ltd.; Serotonin, Forskolin and IBMX were purchased from Sigma; ProxiPlate-384-well plates was purchased from PerkinElmer; HBSS was purchased from Thermo Fisher Scientific.
Activation rate (activity %)=(negative control ratio-compound ratio)/(negative control ratio-positive control ratio)×100%

TAAR1 receptor = biological target: T2, TAAR1 receptor (Homo sapiens, UniProt Q96RJ0); test: TAAR1 receptor cAMP agonist test; assay type: cell-based; set-up: Emax: dose or concentration left out as unconfirmed
T2 sequence (Q96RJ0 1-339): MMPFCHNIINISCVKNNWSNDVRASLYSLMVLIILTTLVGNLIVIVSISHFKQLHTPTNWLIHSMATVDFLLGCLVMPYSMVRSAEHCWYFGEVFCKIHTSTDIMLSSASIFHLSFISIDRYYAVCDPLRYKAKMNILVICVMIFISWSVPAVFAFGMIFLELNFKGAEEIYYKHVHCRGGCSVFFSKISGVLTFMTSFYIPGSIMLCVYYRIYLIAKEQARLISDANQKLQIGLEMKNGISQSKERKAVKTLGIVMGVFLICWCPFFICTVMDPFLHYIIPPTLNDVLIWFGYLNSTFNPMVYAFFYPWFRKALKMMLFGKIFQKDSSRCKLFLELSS
From the text: The cAMP detection kit was purchased from Cisbio; the […] cell line stably expressing TAAR1 receptor was constructed by Shanghai Shujing Biotechnology Co., Ltd.; IBMX was purchased from Sigma; Phenethylamine (PEA); ProxiPlate-384 well plate was purchased from PerkinElmer; HBSS was purchased from Thermo Fisher Scientific Company.

[3] = Equilibrium solubility in water for 24 hours; assay type: physicochemical; conditions: deionized water, 37 °C
Experimental: Investigating the equilibrium solubility of each hydrochloride crystal form of Compound A in water for 24 hours.
Excess samples of hydrochloride crystal form I and hydrochloride crystal form II of Compound A were weighed and placed in different 10 mL centrifuge tubes, and 1 mL of deionized water was added, sealed with a parafilm, shaking at a constant temperature of 37 °C and 150 rpm for 24 hours; after passing through a 0.45 μm organic filter, the sample was diluted and injected for HPLC analysis.

[4] = Solid stability experiment (high temperature, high humidity, light); assay type: physicochemical; conditions: for chemical stability: high temperature, high humidity, or illumination, conclusion in words; for degraded at 240 h / degraded at 480 h / degraded at 2040 h: solid, read-out: Increase of total impurities; for degraded at 240 h: day 10; for degraded at 480 h: day 20; for degraded at 2040 h: day 85
Experimental: Investigating the chemical stability of each hydrochloride crystal form of Compound A under high temperature, high humidity, and light conditions.
Appropriate amounts of hydrochloride crystal form I and hydrochloride crystal form II of Compound A were weighed and placed in weighing dishes respectively; three samples for each salt were prepared, and placed respectively in a oven at 60 °C, a drying dish with RH 92.5%, and a stability test chamber with an illumination condition of 5000 lx for 85 days. After mixing all samples evenly at day 0, day 10, day 20, and day 85, samples were taken and dissolved in acetonitrile and water, and the content and impurity changes were detected by HPLC-related substance detection method.

Q: Which results are given for `CNC[C@@H]1OCC2(CC2)c2sccc21` (single isomer, unassigned) [Compound A]?
A: inhibitory effect compared to SEP-363856 ([1]; MK-801 model, conclusion in words): lower minimum effective dose and stronger inhibitory effect; minimal effective dose ([1]; Mus musculus, po, 2.5 h, p.o. 30 min before MK-801 0.3 mg/kg i.p., movement distance, 150 min, read-out: MED (minimum effective dose)): 10 mg/kg; inhibition of high spontaneous activity induced by MK-801 ([1]; p.o., conclusion in words): can significantly inhibit the high spontaneous activity induced by MK-801 in mice, and the inhibitory effect is gradually enhanced with the increase of the compound dosage, and there is a good dose-dependent relationship; minimal effective dose ([2]; Mus musculus, po, 1 h, p.o. 30 min before PCP 5 mg/kg i.p., movement distance, 60 min, read-out: MED (minimum effective dose)): 0.1 mg/kg; inhibitory effect compared to SEP-363856 ([2]; PCP model, conclusion in words): lower minimum effective dose and stronger inhibitory effect; inhibition of high spontaneous activity induced by PCP ([2]; p.o., conclusion in words): can significantly inhibit the high spontaneous activity induced by PCP in mice, and the inhibitory effect is gradually enhanced with the increase of the compound dosage, and there is a good dose-dependent relationship; Emax at 1 µM (5-HT1A receptor; activation rate, positive control Serotonin, final concentration 10^−6M, read-out: 5-HT1A Max Act %): 95.2%; agonistic effect on 5-HT1A receptors (5-HT1A receptor; conclusion in words): has agonistic effect on 5-HT1A receptors; agonist effect on the TAAR1 receptors (TAAR1 receptor; conclusion in words): have an agonist effect on the TAAR1 receptors; Emax (TAAR1 receptor; read-out: TAAR1 Max Act %): 95.5%

Q: For `CNC[C@@H]1OCC2(CC2)c2sccc21` [Hydrochloride crystal form I, (R)-1-(4′H,6′H-spiro[cyclopropane-1,7′-thieno[3,2-c]pyran]-4′-yl)-N-methylmethylamine], which solubility thermodynamic at 24 h ([3]; water) is on record?
A: 155 mg/mL

Q: And the chemical stability [4]?
A: good chemical stability

Q: What about the degraded at 240 h ([4]; High humidity of RH 92.5%) of the same molecule?
A: < 0.1%

Q: What about the degraded at 480 h ([4]; High humidity of RH 92.5%) of the same molecule?
A: < 0.1%

Q: And the degraded at 2040 h ([4]; High humidity of RH 92.5%)?
A: 0.199%

Q: What about the degraded at 240 h ([4]; Illumination of 5000 lx) of the same molecule?
A: < 0.1%

Q: What about the degraded at 480 h ([4]; Illumination of 5000 lx) of the same molecule?
A: < 0.1%

Q: What about the degraded at 2040 h ([4]; Illumination of 5000 lx) of the same molecule?
A: < 0.1%

Q: For `CNC[C@@H]1OCC2(CC2)c2sccc21` [Hydrochloride crystal form II, (R)-1-(4′H,6′H-spiro[cyclopropane-1,7′-thieno[3,2-c]pyran]-4′-yl)-N-methylmethylamine], which Equilibrium solubility ([3]; 1440 min) is on record?
A: 162.30 mg/mL

Q: What about the chemical stability [4] of the same molecule?
A: good chemical stability

Q: What about the degraded at 240 h ([4]; High temperature of 60 °C) of the same molecule?
A: < 0.1%

Q: What about the degraded at 480 h ([4]; High temperature of 60 °C) of the same molecule?
A: < 0.1%

Q: What about the degraded at 2040 h ([4]; High temperature of 60 °C) of the same molecule?
A: 0.133%
